Results taken from US4508663A, “Process for preparing thiosulfenamide derivatives of N-phosphonomethylglycinonitriles” (Monsanto Company, priority 1983, dated 1985).

Legend:
Test in all cases: post-emergence herbicidal activity, greenhouse
Assay type in all cases: in vivo
Morningglory = system: Morningglory
From the text: (§1) A good grade of top soil is placed in aluminum pans having holes in the bottom and compacted to a depth of 0.95 to 1.27 cm. from the top of the pan. A predetermined number of seeds of each of several dicotyledonous and monocotyledonous annual plant species and/or vegetative propagules for the perennial plant species are placed on the soil and pressed into the soil surface. The seeds and/or vegetative propagules are covered with soil and leveled. The pans are then placed on a sand bench in the greenhouse and watered from below as needed. After the plants reach the desired age (two to three weeks), each pan except for the control pans is removed individually to a spraying chamber and sprayed by means of an atomizer operating at a positive air pressure of approximately 1.46 kg/cm^2 absolute. The atomizer contains 6 ml. of a solution or suspension of the chemical. In that 6 ml., is an amount of a cyclohexanone emulsifying agent mixture to give a spray solution or suspension which contains about 0.4% by weight of the emulsifier. The spray solution or suspension contains a sufficient amount of the candidate chemical in order to give application rates corresponding to those set forth in the tables. The spray solution is prepared by taking an aliquot of a 1.0% by weight stock solution or suspension of the candidate chemical in an organic solvent such as acetone or tetrahydrofuran or in water. The emulsifying agent employed is a mixture comprising 35 weight percent butylamine dodecylbenzene sulfonate and 65 weight percent of a tall oil ethylene oxide condensate having about 11 moles of ethylene oxide per mole of tall oil. The pans are returned to the greenhouse and watered as before and the injury to the plants as compared to the control is observed at approximately two and four weeks as indicated in the tables under WAT and the results recorded. In some instances, the two-week observations are omitted.
(§2) The post-emergence herbicidal activity index used in Table I is as follows: […]

Wheat = details: Table II, 2 WAT
From the text: as §1, §2

Smartweed = system: Smartweed
From the text: as §1, §2

Hemp Sesbania = details: Table II, 2 WAT
From the text: as §1, §2

Panicum Spp = details: Table II, 2 WAT
From the text: as §1, §2

Downy Brome = system: Downy Brome
From the text: as §1, §2

Sorghum = details: Table II, 2 WAT
From the text: as §1, §2

Yellow Nutsedge = details: Table I
From the text: as §1, §2

Crabgrass = details: Table II, 2 WAT
From the text: as §1, §2

Sugar Beet = details: Table II, 2 WAT
From the text: as §1, §2

Lambsquarters = system: Lambsquarters
From the text: as §1, §2

Johnsongrass = details: Table I
From the text: as §1, §2

Quackgrass = details: Table I
From the text: as §1, §2

Soybean = details: Table II, 2 WAT
From the text: as §1, §2

Barnyardgrass = system: Barnyardgrass
From the text: as §1, §2

Wild Buckwheat = details: Table II, 2 WAT
From the text: as §1, §2

Velvetleaf = system: Velvetleaf
From the text: as §1, §2

Rice = details: Table II, 2 WAT
From the text: as §1, §2

Cocklebur = system: Cocklebur
From the text: as §1, §2

Compound: N#CCN(CP(=O)(Oc1ccccc1)Oc1ccccc1)SSc1ccc2ccccc2c1 [IX, Phosphonic acid, [[(cyanomethyl)(2-naphthalenyldithio)amino]methyl]-, diphenyl ester]
- post-emergence herbicidal activity index (Morningglory; Table I, 2 WAT, 5.6 kg/h): 0 (0-24% control)
- post-emergence herbicidal activity index (Morningglory; Table I, 4 WAT, 11.2 kg/h): 0 (0-24% control)
- post-emergence herbicidal activity index (Morningglory; Table II, 2 WAT, 0.28 kg/h): 0 (0-24% control)
- post-emergence herbicidal activity index (Morningglory; Table II, 2 WAT, 1.12 kg/h): 0 (0-24% control)
- post-emergence herbicidal activity index (Morningglory; Table II, 2 WAT, 5.6 kg/h): 1 (25-49% control)
- post-emergence herbicidal activity index (Wheat; 0.28 kg/h): 0 (0-24% control)
- post-emergence herbicidal activity index (Wheat; 1.12 kg/h): 0 (0-24% control)
- post-emergence herbicidal activity index (Wheat; 5.6 kg/h): 1 (25-49% control)
- post-emergence herbicidal activity index (Smartweed; Table I, 2 WAT, 5.6 kg/h): 0 (0-24% control)
- post-emergence herbicidal activity index (Smartweed; Table I, 4 WAT, 11.2 kg/h): 3 (75-99% control)
- post-emergence herbicidal activity index (Smartweed; Table II, 2 WAT, 0.28 kg/h): 0 (0-24% control)
- post-emergence herbicidal activity index (Smartweed; Table II, 2 WAT, 1.12 kg/h): 0 (0-24% control)
- post-emergence herbicidal activity index (Smartweed; Table II, 2 WAT, 5.6 kg/h): 1 (25-49% control)
- post-emergence herbicidal activity index (Hemp Sesbania; 0.28 kg/h): 0 (0-24% control)
- post-emergence herbicidal activity index (Hemp Sesbania; 1.12 kg/h): 0 (0-24% control)
- post-emergence herbicidal activity index (Hemp Sesbania; 5.6 kg/h): 1 (25-49% control)
- post-emergence herbicidal activity index (Panicum Spp; 0.28 kg/h): 0 (0-24% control)
- post-emergence herbicidal activity index (Panicum Spp; 1.12 kg/h): 0 (0-24% control)
- post-emergence herbicidal activity index (Panicum Spp; 5.6 kg/h): 0 (0-24% control)
- post-emergence herbicidal activity index (Downy Brome; Table I, 2 WAT, 5.6 kg/h): 0 (0-24% control)
- post-emergence herbicidal activity index (Downy Brome; Table I, 4 WAT, 11.2 kg/h): 0 (0-24% control)
- post-emergence herbicidal activity index (Downy Brome; Table II, 2 WAT, 0.28 kg/h): 0 (0-24% control)
- post-emergence herbicidal activity index (Downy Brome; Table II, 2 WAT, 1.12 kg/h): 0 (0-24% control)
- post-emergence herbicidal activity index (Downy Brome; Table II, 2 WAT, 5.6 kg/h): 0 (0-24% control)
- post-emergence herbicidal activity index (Sorghum; 0.28 kg/h): 0 (0-24% control)
- post-emergence herbicidal activity index (Sorghum; 1.12 kg/h): 0 (0-24% control)
- post-emergence herbicidal activity index (Sorghum; 5.6 kg/h): 1 (25-49% control)
- post-emergence herbicidal activity index (Yellow Nutsedge; 2 WAT, 5.6 kg/h): 0 (0-24% control)
- post-emergence herbicidal activity index (Yellow Nutsedge; 4 WAT, 11.2 kg/h): 0 (0-24% control)
- post-emergence herbicidal activity index (Crabgrass; 0.28 kg/h): 0 (0-24% control)
- post-emergence herbicidal activity index (Crabgrass; 1.12 kg/h): 0 (0-24% control)
- post-emergence herbicidal activity index (Crabgrass; 5.6 kg/h): 2 (50-74% control)
- post-emergence herbicidal activity index (Sugar Beet; 0.28 kg/h): 0 (0-24% control)
- post-emergence herbicidal activity index (Sugar Beet; 1.12 kg/h): 0 (0-24% control)
- post-emergence herbicidal activity index (Sugar Beet; 5.6 kg/h): 0 (0-24% control)
- post-emergence herbicidal activity index (Lambsquarters; Table I, 2 WAT, 5.6 kg/h): 1 (25-49% control)
- post-emergence herbicidal activity index (Lambsquarters; Table I, 4 WAT, 11.2 kg/h): 3 (75-99% control)
- post-emergence herbicidal activity index (Lambsquarters; Table II, 2 WAT, 0.28 kg/h): 0 (0-24% control)
- post-emergence herbicidal activity index (Lambsquarters; Table II, 2 WAT, 1.12 kg/h): 0 (0-24% control)
- post-emergence herbicidal activity index (Lambsquarters; Table II, 2 WAT, 5.6 kg/h): 3 (75-99% control)
- post-emergence herbicidal activity index (Johnsongrass; 2 WAT, 5.6 kg/h): 1 (25-49% control)
- post-emergence herbicidal activity index (Johnsongrass; 4 WAT, 11.2 kg/h): 1 (25-49% control)
- post-emergence herbicidal activity index (Quackgrass; 2 WAT, 5.6 kg/h): 0 (0-24% control)
- post-emergence herbicidal activity index (Quackgrass; 4 WAT, 11.2 kg/h): 1 (25-49% control)
- post-emergence herbicidal activity index (Soybean; 0.28 kg/h): 0 (0-24% control)
- post-emergence herbicidal activity index (Soybean; 1.12 kg/h): 0 (0-24% control)
- post-emergence herbicidal activity index (Soybean; 5.6 kg/h): 0 (0-24% control)
- post-emergence herbicidal activity index (Barnyardgrass; Table I, 2 WAT, 5.6 kg/h): 0 (0-24% control)
- post-emergence herbicidal activity index (Barnyardgrass; Table I, 4 WAT, 11.2 kg/h): 1 (25-49% control)
- post-emergence herbicidal activity index (Barnyardgrass; Table II, 2 WAT, 0.28 kg/h): 0 (0-24% control)
- post-emergence herbicidal activity index (Barnyardgrass; Table II, 2 WAT, 1.12 kg/h): 0 (0-24% control)
- post-emergence herbicidal activity index (Barnyardgrass; Table II, 2 WAT, 5.6 kg/h): 1 (25-49% control)
- post-emergence herbicidal activity index (Wild Buckwheat; 0.28 kg/h): 0 (0-24% control)
- post-emergence herbicidal activity index (Wild Buckwheat; 1.12 kg/h): 0 (0-24% control)
- post-emergence herbicidal activity index (Wild Buckwheat; 5.6 kg/h): 1 (25-49% control)
- post-emergence herbicidal activity index (Velvetleaf; Table I, 2 WAT, 5.6 kg/h): 1 (25-49% control)
- post-emergence herbicidal activity index (Velvetleaf; Table I, 4 WAT, 11.2 kg/h): 1 (25-49% control)
- post-emergence herbicidal activity index (Velvetleaf; Table II, 2 WAT, 0.28 kg/h): 0 (0-24% control)
- post-emergence herbicidal activity index (Velvetleaf; Table II, 2 WAT, 1.12 kg/h): 0 (0-24% control)
- post-emergence herbicidal activity index (Velvetleaf; Table II, 2 WAT, 5.6 kg/h): 0 (0-24% control)
- post-emergence herbicidal activity index (Rice; 0.28 kg/h): 0 (0-24% control)
- post-emergence herbicidal activity index (Rice; 1.12 kg/h): 0 (0-24% control)
- post-emergence herbicidal activity index (Rice; 5.6 kg/h): 0 (0-24% control)
- post-emergence herbicidal activity index (Cocklebur; Table I, 2 WAT, 5.6 kg/h): 0 (0-24% control)
- post-emergence herbicidal activity index (Cocklebur; Table I, 4 WAT, 11.2 kg/h): 1 (25-49% control)
- post-emergence herbicidal activity index (Cocklebur; Table II, 2 WAT, 0.28 kg/h): 0 (0-24% control)
- post-emergence herbicidal activity index (Cocklebur; Table II, 2 WAT, 1.12 kg/h): 0 (0-24% control)
- post-emergence herbicidal activity index (Cocklebur; Table II, 2 WAT, 5.6 kg/h): 1 (25-49% control)

Compound: N#CCN(CP(=O)(Oc1ccccc1)Oc1ccccc1)SSCc1cccc(C(F)(F)F)c1 [VIII, Phosphonic acid, [[(cyanomethyl)[[[3-(trifluoromethyl)phenyl]methyl]dithio]amino]methyl]-, diphenyl ester]
- post-emergence herbicidal activity index (Morningglory; Table I, 4 WAT, 5.6 kg/h): 1 (25-49% control)
- post-emergence herbicidal activity index (Morningglory; Table I, 4 WAT, 11.2 kg/h): 1 (25-49% control)
- post-emergence herbicidal activity index (Smartweed; Table I, 4 WAT, 5.6 kg/h): 0 (0-24% control)
- post-emergence herbicidal activity index (Smartweed; Table I, 4 WAT, 11.2 kg/h): 0 (0-24% control)
- post-emergence herbicidal activity index (Downy Brome; Table I, 4 WAT, 5.6 kg/h): 1 (25-49% control)
- post-emergence herbicidal activity index (Downy Brome; Table I, 4 WAT, 11.2 kg/h): 2 (50-74% control)
- post-emergence herbicidal activity index (Yellow Nutsedge; 4 WAT, 5.6 kg/h): 2 (50-74% control)
- post-emergence herbicidal activity index (Yellow Nutsedge; 4 WAT, 11.2 kg/h): 2 (50-74% control)
- post-emergence herbicidal activity index (Lambsquarters; Table I, 4 WAT, 5.6 kg/h): 4 (100% control)
- post-emergence herbicidal activity index (Lambsquarters; Table I, 4 WAT, 11.2 kg/h): 4 (100% control)
- post-emergence herbicidal activity index (Johnsongrass; 4 WAT, 5.6 kg/h): 3 (75-99% control)
- post-emergence herbicidal activity index (Johnsongrass; 4 WAT, 11.2 kg/h): 3 (75-99% control)
- post-emergence herbicidal activity index (Quackgrass; 4 WAT, 11.2 kg/h): 0 (0-24% control)
- post-emergence herbicidal activity index (Barnyardgrass; Table I, 4 WAT, 5.6 kg/h): 2 (50-74% control)
- post-emergence herbicidal activity index (Barnyardgrass; Table I, 4 WAT, 11.2 kg/h): 2 (50-74% control)
- post-emergence herbicidal activity index (Velvetleaf; Table I, 4 WAT, 5.6 kg/h): 1 (25-49% control)
- post-emergence herbicidal activity index (Velvetleaf; Table I, 4 WAT, 11.2 kg/h): 1 (25-49% control)
- post-emergence herbicidal activity index (Cocklebur; Table I, 4 WAT, 5.6 kg/h): 1 (25-49% control)
- post-emergence herbicidal activity index (Cocklebur; Table I, 4 WAT, 11.2 kg/h): 2 (50-74% control)

Compound: N#CCN(CP(=O)(Oc1ccccc1)Oc1ccccc1)SSC1CCCCC1 [X, Phosphonic acid, [[(cyanomethyl)(cyclohexyldithio)amino]methyl]-, diphenyl ester]
- post-emergence herbicidal activity index (Morningglory; Table I, 2 WAT, 5.6 kg/h): 0 (0-24% control)
- post-emergence herbicidal activity index (Morningglory; Table I, 4 WAT, 11.2 kg/h): 1 (25-49% control)
- post-emergence herbicidal activity index (Smartweed; Table I, 2 WAT, 5.6 kg/h): 0 (0-24% control)
- post-emergence herbicidal activity index (Smartweed; Table I, 4 WAT, 11.2 kg/h): 0 (0-24% control)
- post-emergence herbicidal activity index (Downy Brome; Table I, 2 WAT, 5.6 kg/h): 0 (0-24% control)
- post-emergence herbicidal activity index (Downy Brome; Table I, 4 WAT, 11.2 kg/h): 1 (25-49% control)
- post-emergence herbicidal activity index (Yellow Nutsedge; 2 WAT, 5.6 kg/h): 0 (0-24% control)
- post-emergence herbicidal activity index (Yellow Nutsedge; 4 WAT, 11.2 kg/h): 0 (0-24% control)
- post-emergence herbicidal activity index (Lambsquarters; Table I, 2 WAT, 5.6 kg/h): 3 (75-99% control)
- post-emergence herbicidal activity index (Lambsquarters; Table I, 4 WAT, 11.2 kg/h): 3 (75-99% control)
- post-emergence herbicidal activity index (Johnsongrass; 2 WAT, 5.6 kg/h): 0 (0-24% control)
- post-emergence herbicidal activity index (Johnsongrass; 4 WAT, 11.2 kg/h): 1 (25-49% control)
- post-emergence herbicidal activity index (Quackgrass; 2 WAT, 5.6 kg/h): 0 (0-24% control)
- post-emergence herbicidal activity index (Quackgrass; 4 WAT, 11.2 kg/h): 0 (0-24% control)
- post-emergence herbicidal activity index (Barnyardgrass; Table I, 2 WAT, 5.6 kg/h): 0 (0-24% control)
- post-emergence herbicidal activity index (Barnyardgrass; Table I, 4 WAT, 11.2 kg/h): 1 (25-49% control)
- post-emergence herbicidal activity index (Velvetleaf; Table I, 2 WAT, 5.6 kg/h): 1 (25-49% control)
- post-emergence herbicidal activity index (Velvetleaf; Table I, 4 WAT, 11.2 kg/h): 1 (25-49% control)
- post-emergence herbicidal activity index (Cocklebur; Table I, 2 WAT, 5.6 kg/h): 0 (0-24% control)
- post-emergence herbicidal activity index (Cocklebur; Table I, 4 WAT, 11.2 kg/h): 2 (50-74% control)
